From patent US12473290B2, “Imidazopyridazine compounds useful as modulators of IL-12, IL-23 and/or IFN alpha responses” (BRISTOL-MYERS SQUIBB COMPANY, priority 2019, dated 2025)

Legend:
[1] = tested on: IFNα Kit225 Reporter (Kit225 T cells with a stably-integrated STAT-dependent luciferase reporter, stimulated with IFNα); assay: Kit225 T Cell Assay, IFNα-stimulated STAT-dependent luciferase reporter; type: cell-based; conditions: 200 U/mL human recombinant IFNα, 5-6 hours, luciferase expression
Experimental: (§1) Kit225 T cells with a stably-integrated STAT-dependent luciferase reporter were plated in RPMI (Gibco) containing 10% heat-inactivated FBS (Gibco) and 100 U/mL PenStrep (Gibco). The cells were then stimulated with either 20 ng/mL human recombinant IL-23 or 200 U/mL human recombinant IFNα (PBL InterferonSource) for 5-6 hours. Luciferase expression was measured using the STEADY-GLO® Luciferase Assay System (Promega) according to the manufacturer's instructions. Inhibition data were calculated by comparison to no inhibitor control wells for 0% inhibition and non-stimulated control wells for 100% inhibition. Dose response curves were generated to determine the concentration required to inhibit 50% of cellular response (IC50) as derived by non-linear regression analysis.

[2] = Kit225 T Cell Assay, IL-23-stimulated STAT-dependent luciferase reporter; type: cell-based; conditions: Kit225 T cells, 20 ng/mL human recombinant IL-23, 5-6 hours, luciferase expression
Experimental: as §1

| IC50 [1] [nM] | IC50 [2] [nM] | Structure (SMILES) |
| --- | --- | --- |
| 340 | 470 | N#Cc1cnc2c(Nc3ccc(C(=O)N4CCCC4)cn3)cc(NC3CCOCC3)nn12 [Example 23, 6-[(oxan-4-yl)amino]-8-{[5-(pyrrolidine-1-carbonyl)pyridin-2-yl]amino}imidazo[1,2-b]pyridazine-3-carbonitrile] |
| 640 | 710 | CC(C)(CC(N)=O)NC(=O)c1cccc(Nc2cc(NC34CC5CC(CC(O)(C5)C3)C4)nn3c(C#N)cnc23)n1 [Example 42, 3-{[6-({3-cyano-6-[(3-hydroxyadamantan-1-yl)amino]imidazo[1,2-b]pyridazin-8-yl}amino)pyridin-2-yl]formamido}-3-methylbutanamide] |
| 450 | 940 | N#Cc1cnc2c(Nc3cccc(-n4cccn4)n3)cc(N[C@@H]3CCCC[C@H]3O)nn12 [Example 61, 6-{[(1R,2R)-2-hydroxycyclohexyl]amino}-8-{[6-(1H-pyrazol-1-yl)pyridin-2-yl]amino}imidazo[1,2-b]pyridazine-3-carbonitrile] |
| 880 | 630 | CC(C)N1CCN(c2cccc(Nc3cc(N[C@@H]4CCCC[C@H]4O)nn4c(C#N)cnc34)n2)CC1 [Example 54, 6-{[(1R,2R)-2-hydroxycyclohexyl]amino}-8-({6-[4-(propan-2-yl)piperazin-1-yl]pyridin-2-yl}amino)imidazo[1,2-b]pyridazine-3-carbonitrile] |
| 140 | 240 | N#Cc1cnc2c(Nc3ccc(C(=O)N[C@@H]4CCC[C@@H]4O)cn3)cc(NCC3CC3)nn12 [Example 53, 6-({3-cyano-6-[(cyclopropylmethyl)amino]imidazo[1,2-b]pyridazin-8-yl}amino)-N-[(1R,2S)-2-hydroxycyclopentyl]pyridine-3-carboxamide] |
| 110 | 550 | N#Cc1cnc2c(Nc3cccc(N4CCOCC4)n3)cc(N[C@@H]3CCCC[C@H]3O)nn12 [Example 65, 6-{[(1R,2R)-2-hydroxycyclohexyl]amino}-8-{[6-(morpholin-4-yl)pyridin-2-yl]amino}imidazo[1,2-b]pyridazine-3-carbonitrile] |
| 160 | 150 | N#Cc1cnc2c(Nc3ccc(C(=O)NCC4CC4)cn3)cc(NCC3CC3)nn12 [Example 51, 6-({3-cyano-6-[(cyclopropylmethyl)amino]imidazo[1,2-b]pyridazin-8-yl}amino)-N-(cyclopropylmethyl)pyridine-3-carboxamide] |
| 490 | 420 | CC(C)(C)NC(=O)c1cccc(Nc2cc(NC34CC5CC(CC(O)(C5)C3)C4)nn3c(C#N)cnc23)n1 [Example 17, N-tert-butyl-6-({3-cyano-6-[(3-hydroxyadamantan-1-yl)amino]imidazo[1,2-b]pyridazin-8-yl}amino)pyridine-2-carboxamide] |
| 450 | 340 | CC(C)(O)C(=O)Nc1cccc(Nc2cc(NC3CCOCC3)nn3c(C#N)cnc23)n1 [Example 25, N-[6-({3-cyano-6-[(oxan-4-yl)amino]imidazo[1,2-b]pyridazin-8-yl}amino)pyridin-2-yl]-2-hydroxy-2-methylpropanamide] |
| 460 | 190 | COc1cccc2ccc(Nc3cc(NC45CC6CC(CC(O)(C6)C4)C5)nn4c(C#N)cnc34)nc12 [Example 18, 6-[(3-hydroxyadamantan-1-yl)amino]-8-[(8-methoxyquinolin-2-yl)amino]imidazo[1,2-b]pyridazine-3-carbonitrile] |
| 460 | 260 | CC(C)(C)CNc1cc(Nc2cccc(NC(=O)C3CC3)n2)c2ncc(C#N)n2n1 [Example 28, N-[6-({3-cyano-6-[(2,2-dimethylpropyl)amino]imidazo[1,2-b]pyridazin-8-yl}amino)pyridin-2-yl]cyclopropanecarboxamide] |
| 690 | 280 | N#Cc1cnc2c(Nc3ccc(C(=O)N4CCCC4)c(N4CCCC4)n3)cc(N[C@@H]3CCCC[C@H]3O)nn12 [Example 2, 6-{[(1R,2R)-2-hydroxycyclohexyl]amino}-8-{[6-(pyrrolidin-1-yl)-5-(pyrrolidine-1-carbonyl)pyridin-2-yl]amino}imidazo[1,2-b]pyridazine-3-carbonitrile] |
| 160 | 340 | N#Cc1cnc2c(Nc3ccc(C(=O)N4CC[C@@H](C#N)C4)c(OCC(F)F)n3)cc(NC3CCOCC3)nn12 [Example 47, (3R)-1-[6-({3-cyano-6-[(oxan-4-yl)amino]imidazo[1,2-b]pyridazin-8-yl}amino)-2-(2,2-difluoroethoxy)pyridine-3-carbonyl]pyrrolidine-3-carbonitrile] |
| 370 | 350 | CC(C)C(=O)N1CCN(c2cccc(Nc3cc(N[C@@H]4CCCC[C@H]4O)nn4c(C#N)cnc34)n2)CC1 [Example 60, 6-{[(1R,2R)-2-hydroxycyclohexyl]amino}-8-({6-[4-(2-methylpropanoyl)piperazin-1-yl]pyridin-2-yl}amino)imidazo[1,2-b]pyridazine-3-carbonitrile] |
| 340 | 740 | CN(C)C1CCN(C(=O)c2ccc(Nc3cc(NC4CCOCC4)nn4c(C#N)cnc34)nc2OCC(F)F)C1 (stereo not shown) [Example 48, 8-{[6-(2,2-difluoroethoxy)-5-[3-(dimethylamino)pyrrolidine-1-carbonyl]pyridin-2-yl]amino}-6-[(oxan-4-yl)amino]imidazo[1,2-b]pyridazine-3-carbonitrile] |
| 750 | 920 | CCC1(C)NC(=O)N(c2cccc(Nc3cc(N[C@@H]4CCCC[C@H]4O)nn4c(C#N)cnc34)n2)C1=O (stereo partly drawn) [Example 57, 8-{[6-(4-ethyl-4-methyl-2,5-dioxoimidazolidin-1-yl)pyridin-2-yl]amino}-6-{[(1R,2R)-2-hydroxycyclohexyl]amino}imidazo[1,2-b]pyridazine-3-carbonitrile] |
| 390 | 220 | CC(C)(O)C(=O)Nc1cccc(Nc2cc(N[C@@H]3CCCC[C@H]3O)nn3c(C#N)cnc23)n1 [Example 9, N-{6-[(3-cyano-6-{[(1R,2R)-2-hydroxycyclohexyl]amino}imidazo[1,2-b]pyridazin-8-yl)amino]pyridin-2-yl}-2-hydroxy-2-methylpropanamide] |
| 760 | 670 | COCCNC(=O)c1ccc(Nc2cc(N[C@@H]3CCCC[C@H]3O)nn3c(C#N)cnc23)nc1N(C)C [Example 32, 6-[(3-cyano-6-{[(1R,2R)-2-hydroxycyclohexyl]amino}imidazo[1,2-b]pyridazin-8-yl)amino]-2-(dimethylamino)-N-(2-methoxyethyl)pyridine-3-carboxamide] |
| 760 | 1100 | CC(=O)NCc1ccc(-c2cccc(Nc3cc(NC4CCOCC4)nn4c(C#N)cnc34)n2)cc1 [Example 50, N-({4-[6-({3-cyano-6-[(oxan-4-yl)amino]imidazo[1,2-b]pyridazin-8-yl}amino)pyridin-2-yl]phenyl}methyl)acetamide] |
| 760 | 890 | CS(=O)(=O)NCc1ccc(-c2cccc(Nc3cc(N[C@@H]4CCCC[C@H]4O)nn4c(C#N)cnc34)n2)cc1 [Example 38, N-[(4-{6-[(3-cyano-6-{[(1R,2R)-2-hydroxycyclohexyl]amino}imidazo[1,2-b]pyridazin-8-yl)amino]pyridin-2-yl}phenyl)methyl]methanesulfonamide] |
| 80 | 140 | CC(C)(C)NC(=O)c1ccc(Nc2cc(NCC3CC3)nn3c(C#N)cnc23)nc1 [Example 52, N-tert-butyl-6-({3-cyano-6-[(cyclopropylmethyl)amino]imidazo[1,2-b]pyridazin-8-yl}amino)pyridine-3-carboxamide] |
| 280 | 490 | CC1(C(=O)Nc2cccc(Nc3cc(N[C@@H]4CCCC[C@H]4O)nn4c(C#N)cnc34)n2)CC1 [Example 8, N-{6-[(3-cyano-6-{[(1R,2R)-2-hydroxycyclohexyl]amino}imidazo[1,2-b]pyridazin-8-yl)amino]pyridin-2-yl}-1-methylcyclopropane-1-carboxamide] |
| 850 | 670 | N#Cc1cnc2c(Nc3ccc(C(=O)N4CCCC4C(F)(F)F)c(OCC(F)F)n3)cc(N[C@@H]3CCCC[C@H]3O)nn12 (stereo partly drawn) [Example 33, 8-{[6-(2,2-difluoroethoxy)-5-[2-(trifluoromethyl)pyrrolidine-1-carbonyl]pyridin-2-yl]amino}-6-{[(1R,2R)-2-hydroxycyclohexyl]amino}imidazo[1,2-b]pyridazine-3-carbonitrile] |

| Structure (SMILES) | IC50 [1] [nM] | IC50 [2] [nM] |
| --- | --- | --- |
| CC(C)(C)Oc1nc(Nc2cc(N[C@@H]3CCCC[C@H]3O)nn3c(C#N)cnc23)ccc1C(=O)N1CCCC1 [Example 12, 8-{[6-(tert-butoxy)-5-(pyrrolidine-1-carbonyl)pyridin-2-yl]amino}-6-{[(1R,2R)-2-hydroxycyclohexyl]amino}imidazo[1,2-b]pyridazine-3-carbonitrile] | 380 | 2730 |
| CN(C)c1nc(Nc2cc(N[C@@H]3CCCC[C@H]3O)nn3c(C#N)cnc23)ccc1C(=O)N1CCN(c2ccccc2F)CC1 [Example 30, 8-{[6-(dimethylamino)-5-[4-(2-fluorophenyl)piperazine-1-carbonyl]pyridin-2-yl]amino}-6-{[(1R,2R)-2-hydroxycyclohexyl]amino}imidazo[1,2-b]pyridazine-3-carbonitrile] | 730 | 390 |
| CC(C)(C)Oc1nc(Nc2cc(N[C@H]3CCCC[C@@H]3O)nn3c(C#N)cnc23)ccc1C(=O)N1CCCC1 [Example 5, 8-{[6-(tert-butoxy)-5-(pyrrolidine-1-carbonyl)pyridin-2-yl]amino}-6-{[(1S,2S)-2-hydroxycyclohexyl]amino}imidazo[1,2-b]pyridazine-3-carbonitrile] | 1300 | 1130 |
